# Where a SMILES comes first, the peptide text is derived from it. The star is where a group is joined. Cbz = O=C(OCc1ccccc1)*
# B1: RAP: receptor associated protein, chaperone that antagonizes binding of LRP ligands to LRP-1 and LRP-2 (protein, UniProt P30533 35-357, looked up)
# Alpha-2-macroglobulin …: YSREKNQPKPSPKRESGEEFRMEKLNQLWEKAQRLHLPPVRLAELHADLKIQERDELAWKKLKLDGLDEDGEKEARLIRNLNVILAKYGLDGKKDARQVTSNSLSGTQEDGLDDPRLEKLWHKAKTSGKFSGEELDKLWREFLHHKEKVHEYNVLLETLSRTEEIHENVISPSDLSDIKGSVLHSRHTELKEKLRSINQGLDRLRRVSHQGYSTEAEFEEPRVIDLWDLAQSANLTDKELEAFREELKHFEAKIEKHNHYQKQLEIAHEKLRHAESVGDGERVSRSREKHALLEGRTKELGYTVKKHLQDLSGRISRARHNEL
# Key:
# LRP-1 [1] = test: LRP-1 levels in human brain endothelial cells exposed to Aβ (Western blot); type: cell-based; settings: human BEC; for effect on LRP-1 levels (85 kDa β-subunit and 515 kDa α-subunit): greater than or equal to 1 μM, 48 hr; for effect on LRP-1 expression: low concentrations (less than 10 nM), within 48 hr
# Description: Human brain endothelial cells (BEC) were isolated from rapid autopsies of neurologically normal young individuals after trauma. BECs were characterized and cultured, and then incubated with different Aβ isoforms at concentrations ranging from 1 nM to 20 μM within 48 hr. Cells were lysed and equal amounts of proteins (10 μg/mi) were separated by 10% denaturing polyacrylamide gel electrophoresis (SDS-PAGE), transferred onto nitrocellulose membrane, and probed with 5A6 (β-chain) or 8G1 (α-chain) human anti-LRP-1-specific IgGs. The relative density of each protein was determined by scanning densitometry using β-actin as an internal control.
# LRP-1 [2] = test: Pulse chase of [35S]-methionine labeled LRP-1 in human brain endothelial cells (half-life); type: cell-based
# Description: Human BEC (4×10^5) were pulsed for 1 hr at 37° C. with 400 μCi of [35S]-methionine (greater than 1000 Ci/mmol; Perkin Elmer, Boston, Mass.) in methionine-free Dulbecco modified Eagle medium (GIBCO BRL, New York, N.Y.). Cells were chased at indicated times within 48 hr. Cell lysates were immunoprecipitated with anti-LRP-1 515 kDa α-chain specific IgG (8G1) on SDS-PAGE. The intensity of signal was quantified in pixels using Storm 860 Phosphoimager (Amersham Biosciences, Piscataway, N.J.).
# [3] = Brain clearance model in mice: efflux of 125I-Aβ1-40 and 14C-inulin after intracerebral microinjection; type: in vivo, mice
# Description: Male C57BL/6 wild-type mice, 8-10 weeks old and 9-10 months old, and male apoE knockout mice (apoE KO) on a C57BL/6 background (Taconic Farm, German-town, N.Y.), 8-10 weeks old and 9-10 months old, were studied.
# A stainless steel guide cannula was implanted stereotaxically into the right caudate-putamen of anesthetized mice (60 mg/kg i.p. sodium pentobarbital). Coordinates for the tip of the cannula were 0.9 mm anterior and 1.9 mm lateral to bregma and 2.9 mm below the surface of the brain. The guide cannula and screw were fixed to the skull with methylmethacrylate (Plastics One, Roanoke, Va.) and a stylet introduced into the guide cannula.
# (§1) For radioisotope injection, animals were re-anesthetized and an injector cannula (Plastic One, Roanoke, Va.) attached with 24G-TEFLON tubing (Small Parts, Miami Lake, Fla.) to a 10 μl gas-tight microsyringe (Hamilton, Reno, Nev.) was used. The amount of injected tracers was determined accurately using a micrometer to measure linear displacement of the syringe plunger in the precalibrated microsyringe. […] When the effects of different molecular reagents were tested, those were injected simultaneously with the radiolabeled peptides.
# The analysis of radioactivity-disappearance curves from the brain was as reported (40, 43). The percentage of radioactivity remaining in the brain after microinjection was determined from eq. 1 as % Recovery in brain=100×(Nb/Ni) where, Nb is the radioactivity remaining in the brain at the end of the experiment and Ni is the radioactivity injected into the brain.
# Inulin was studied as a metabolically inert polar reference marker that is neither transported across the BBB nor retained by the brain (40); its clearance rate, i.e., kinulin, provides a measure of the ISF bulk flow and is calculated as Nb(inulin)/Ni(inulin)=exp (−kinulin*t) (2).
# For Aβ, there are two possible physiological pathways of elimination—direct transport across the BBB into the bloodstream and elimination by ISF bulk flow into the CSF and cervical lymphatics. It is also possible that Aβ is retained within the brain either by binding to its cell surface receptors directly as a free peptide and/or by binding to different transport proteins. Thus, according to the model, the fraction of Aβ remaining in the brain can be expressed as Nb(Aβ)/Ni(Aβ)=a1+a2*e^−k1*t (3), where a1=k2/(k1+k2) and a2=k1/(k1+k2), and k1 and k2 denote the fractional coefficients of total efflux from the brain and retention within the brain, respectively.
# The fractional rate constant of Aβ efflux across the BBB from brain parenchyma can be calculated by knowing the fractional rate coefficient of total efflux of Aβ and inulin as k3=k1−k(inulin) (4), i.e., as the difference between the fractional rate constant for total efflux of Aβ and the fractional rate constant of inulin. The half-saturation concentration for the elimination of Aβ by transport across the BBB, k0.5, was calculated from the equation [1−(Nb/Ni)]*100=Clmax/(k0.5+Ni) (5), where Clmax represents the maximal efflux capacity for the saturable component of Aβ clearance across the BBB corrected for peptide clearance by the ISF flow. Clmax is expressed as a percentage of the injected dose, [1−(Nb/Ni)]×100, cleared from brain by saturable BBB transport over 30 min.
# The MLAB mathematical modeling system (Civilized Software, Silver Spring, Md.) was used to fit the compartmental model to the disappearance curves or percent recovery data with inverse square weighting.
# [4] = design: species or system mice; settings: mouse, in vivo
# Description: Brain, blood and CSF were sampled and prepared for radioactivity analysis. […] Brain, plasma and CSF samples were mixed with TCA (final concentration 10%), centrifuged at 14,000 rpm at 4° C. for 8 min to 10 min, and radioactivity in the precipitate, water and chloroform fractions determined in gamma counter (Wallac, Turku, Finland).
# The supernatant was then lyophilized. The resulting material was dissolved in 0.005% TFA in water, pH 2, before injection onto a C4 column (Vydac, The Separation Group, Hesperia, Calif.). […] Column eluants were monitored at 214 nm. The eluted fractions were collected and counted.
# For SDS-PAGE analysis, TCA precipitated samples were resuspended in 1% SDS, vortexed and incubated at 55° C. for 5 min, then neutralized, boiled for 3 min, homogenized and analyzed by electrophoresis in 10% Tris-tricine gels followed by fluorography.
# [5] = system: brain clearance of ^125I-Aβ1-40; test: Effect of molecular reagents on brain clearance of 125I-Aβ1-40 at 30 min; type: in vivo, mice; settings: 125I-Aβ1-40 12 nM
# Description: as §1
# The next set of experiments was designed to characterize the BBB transport system responsible for the transcytosis of Aβ. […] Clearance of ^14C-inulin was not affected by any of the studied molecular reagents.
molecule,measurement,setting,value
Aβ1-42: synthetic wild-type amyloid-β peptide of 42 amino acids,effect on LRP-1 levels (85 kDa β-subunit and 515 kDa α-subunit),LRP-1 [1],progressively decreased
same,effect on LRP-1 expression,LRP-1 [1],do not alter significantly
same,t1/2 for LRP-1 in the presence of peptide,"LRP-1 [2]; 20 μM, control 9.6 hr, human BEC",6.4 h
^14C-Inulin,Retention in brain k,[3]; 60 nM,None
same,Retention in brain t½,[3]; 60 nM,None
same,Transport by BBB t½,[3]; 60 nM,None
same,Total Efflux k,"[3]; 60 nM 125I-Aβ1-40 with 14C-inulin, microinjection into caudate nucleus, mice",0.0029 ± 0.0002 min⁻¹
same,Total Efflux t½ (half-time for brain efflux),"[3]; 60 nM, microinjection into caudate nucleus, young mice",3.983 ± 0.208 h
same,Transport by ISF k,"[3]; 60 nM, ISF bulk flow",0.0029 ± 0.0002 min⁻¹
same,Transport by ISF t½,"[3]; 60 nM, ISF bulk flow",3.98 ± 0.208 h
same,Transport by BBB k,"[3]; 60 nM, k3=k1−k(inulin), eq. 4",None
CC(C)C[C@@H](C=O)NC(=O)[C@H](CC(C)C)NC(=O)[C@H](CC(C)C)NC(=O)OCc1ccccc1 [MG132] (Cbz-Leu-Leu-Leu-aldehyde),effect on t1/2 for LRP-1,"LRP-1 [2]; MG132 20 μM, both control and Aβ-treated cells",increased
Aβ1-40: synthetic wild-type amyloid-β peptide of 40 amino acids; in clearance text it means the radioiodinated tracer,half-saturation (K0.5) of the BBB efflux transport system,[3]; mouse,15.3 nM
same,Retention in brain t½,"[3]; mouse, in vivo",2.742 h
same,Transport by BBB t½,"[3]; mouse, in vivo",0.577 ± 0.06 h
same,elimination rate from brain at less than 2 nM faster than at a load of 60 nM,"[3]; mouse, in vivo",3.5 fold
same,rate k of clearance from the brain higher than that for inulin,"[3]; mouse, in vivo",7.9 fold
same,reduction of brain clearance in 9-month old apoE KO mice,"[3]; mouse, in vivo",46%
same,reduction of brain clearance in 9-month old wild-type mice,"[3]; mouse, in vivo",55%
same,reduction of brain clearance in young (2-month old) apoE KO mice,"[3]; mouse, in vivo",30%
same,dose remaining sequestered within the CNS,"[3]; mouse, in vivo, 5 h",15.6%
same,Total Efflux t½ (half-time for brain efflux),"[3]; mouse, not told",0.417 h
same,difference in half-time of brain efflux versus inulin,"[3]; mouse, not told",9.4 fold
same,degradation/metabolism in brain ISF prior to BBB transport,[4],not observed
same,effect on LRP-1 levels (85 kDa β-subunit and 515 kDa α-subunit),LRP-1 [1],progressively decreased
same,effect on LRP-1 expression,LRP-1 [1],do not alter significantly
mutant Aβ (Dutch/Iowa4o): synthetic Aβ peptide of 40 amino acids with Dutch/Iowa double mutation E22Q/D23N,effect on LRP-1 levels (85 kDa β-subunit and 515 kDa α-subunit),LRP-1 [1],progressively decreased
same,effect on LRP-1 expression,LRP-1 [1],do not alter significantly
B1,reduction in Aβ clearance from the brain,"[5]; RAP 200 nM, versus vehicle",30%
same,decrease in Aβ clearance from the brain,[5]; RAP 5 μM,44%

# — patent US20040259159A1, “Role of LDL receptor protein-1 (LRP-1) in Alzheimer's disease” (priority 2000, published 2004)
